Data on 1 compound can be found in patent publication US7625580B1, “Semi-interpenetrating or interpenetrating polymer networks for drug delivery and tissue engineering” (Massachusetts Institute of Technology, priority 2000, dated 2009).

Structures are written as SMILES.

In this data set the test system is bovine chondroycytes. As to the kind of experiment: Biocompatibility of the photoinitiator, tested without polymer, on chondrocytes before and after UVA exposure. The data set is classed as cell-based. To be noted: for cell damage (morphology) after light exposure: UVA 3 minutes at 1-3 mW/cm^2. The text has this:
Although the initiator PHK is approved for dental applications, the initiator was examined without the presence of polymer to ascertain the toxicity of the radical produced to initiate a photopolymerization. The PEOD is very reactive towards the radical so the lack of polymer would make all radicals available to damage cells (a worst case scenario). Three initiator concentrations (0.1, 0.05 and 0.01% (w/w)) were examined.
Chondrocyte isolated from calf shoulders were maintained ex vivo in cell culture medium (DMEM) at 37° C. and 5% CO2. Cells were passaged approximately once a week. Approximately 10,000 cells per well in an 8-well tissue culture plate were seeded. 1-hydroxycylcohexyl-phenyl-ketone (HPK) was added to DMEM to reach 0.1, 0.05 and 0.01% (w/w) concentrations. The cells were incubated for 24 hours in the present of the initiator to examine possible acute cell toxicity. The cells were then exposed to UVA radiation (2 mW/cm^2) for 3 minutes to activate the photoactive initiator.
To determine the effect of photoactive initiator concentration on cells before exposure to light, cells were exposed to a concentration of 0% (w/w), 0.1% (w/w), 0.05% (w/w), and 0.01% (w/w).
The effect of photoactive initiator concentration on cells after exposure to light for four days was determined by exposing cells to a concentration of 0% (w/w), 0.1% (w/w), 0.05% (w/w), and 0.01% (w/w). The cells were compared morphologically and in relation to cell proliferation for 4 days.
Further analysis was made between controls which were a) not exposed to initiator or UVA, b) cells exposed to UVA only and c) cells exposed to UVA in the presence of 0.01% PHK. The effect of photoactive initiator on cells when exposed to no light or photoactive initiator, light only, 0.01% light and initiator, and 24 hours after light exposure was determined.

Consider `O=C(c1ccccc1)C1(O)CCCCC1` [initiator, 1-hydroxycylcohexyl-phenyl-ketone], for which, for the setting “0.01% PHK with UVA versus no-treatment and UVA-only controls, 24 hours after light exposure”, the “effect on proliferation and morphology” value is “does not appear to alter proliferation and morphology”. Further, the “toxicity to cells before exposure to light” value (0.1, 0.05 and 0.01% (w/w), 24 hours incubation, no light) was “does not appear to be toxic”. In addition, the “cell damage (morphology) after light exposure” value by setting is: (initiator 0.01% versus control) “no damage”; (initiator 0.05%) “Variable damage”; (initiator 0.1%) “extensive cell death”.
